Experimental findings from ChEMBL document CHEMBL2163286, “1,2,3,4-tetrahydroquinoline-based selective human neuronal nitric oxide synthase (nNOS) inhibitors: lead optimization studies resulting in the identification of N-(1-(2-(methylamino)ethyl)-1,2,3,4-tetrahydroquinolin-6-yl)thiophene-2-carboximidamide as a preclinical development candidate” (J Med Chem, 2012) are described below.

Bounds are passed on as bounds.

Data set [1] can be described thus: Cmax in rat at 3 mg/kg, iv or 10 mg/kg, po. As to conditions: in vivo. The data set is classed as ADME, organism-based.
Data set [2] is described as follows: Volume of distribution at steady state in rat at 3 mg/kg, iv or 10 mg/kg, po. Format: ADME, organism-based. As to conditions: in vivo, read-out: Vdss.
The target in data set [3] is T1, Adrenergic receptor alpha-2 (Rattus norvegicus, UniProt P22086+P19328+P22909).
T1 sequence (P22086 whole entry): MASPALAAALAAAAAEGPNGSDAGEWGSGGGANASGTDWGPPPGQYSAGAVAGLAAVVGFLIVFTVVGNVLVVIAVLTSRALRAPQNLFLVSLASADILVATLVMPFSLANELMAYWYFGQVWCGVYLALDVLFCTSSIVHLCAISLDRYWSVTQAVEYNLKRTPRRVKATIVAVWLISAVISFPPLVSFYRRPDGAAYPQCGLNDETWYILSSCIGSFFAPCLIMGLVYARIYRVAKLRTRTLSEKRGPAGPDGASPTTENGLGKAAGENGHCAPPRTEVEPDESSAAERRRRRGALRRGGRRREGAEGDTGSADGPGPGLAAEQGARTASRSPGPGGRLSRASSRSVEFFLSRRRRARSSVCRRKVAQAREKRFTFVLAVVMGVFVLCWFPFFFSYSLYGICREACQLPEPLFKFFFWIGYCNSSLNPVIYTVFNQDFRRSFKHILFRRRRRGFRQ
T1 sequence (P19328 whole entry): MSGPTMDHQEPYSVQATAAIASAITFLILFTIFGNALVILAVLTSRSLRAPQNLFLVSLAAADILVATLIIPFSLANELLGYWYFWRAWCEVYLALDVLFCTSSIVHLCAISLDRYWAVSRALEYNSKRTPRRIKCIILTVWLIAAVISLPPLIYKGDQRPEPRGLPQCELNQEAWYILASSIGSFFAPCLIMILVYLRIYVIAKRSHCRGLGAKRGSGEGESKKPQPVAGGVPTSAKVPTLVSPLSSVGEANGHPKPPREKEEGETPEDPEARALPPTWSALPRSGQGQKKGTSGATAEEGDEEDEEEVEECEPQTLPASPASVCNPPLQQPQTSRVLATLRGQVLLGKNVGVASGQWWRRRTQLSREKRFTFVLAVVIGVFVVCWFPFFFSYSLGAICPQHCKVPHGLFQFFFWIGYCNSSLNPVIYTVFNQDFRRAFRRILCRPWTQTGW
T1 sequence (P22909 whole entry): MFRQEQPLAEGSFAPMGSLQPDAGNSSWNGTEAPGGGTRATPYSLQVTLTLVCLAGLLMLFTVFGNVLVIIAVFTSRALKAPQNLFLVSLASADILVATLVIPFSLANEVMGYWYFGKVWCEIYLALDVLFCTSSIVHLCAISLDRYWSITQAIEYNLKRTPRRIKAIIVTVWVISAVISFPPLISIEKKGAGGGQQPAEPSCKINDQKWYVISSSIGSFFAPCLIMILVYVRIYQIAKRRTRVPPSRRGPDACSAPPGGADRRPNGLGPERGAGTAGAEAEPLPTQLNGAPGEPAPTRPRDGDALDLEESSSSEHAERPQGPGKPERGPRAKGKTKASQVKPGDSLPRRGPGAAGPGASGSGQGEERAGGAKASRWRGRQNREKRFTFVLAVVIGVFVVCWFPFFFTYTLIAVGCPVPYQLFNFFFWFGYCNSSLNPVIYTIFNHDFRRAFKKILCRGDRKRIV
In words: Inhibition of rat Alpha-2 adrenergic receptor by cell based functional assay.

The target in a further data set is Cytochrome P450 3A4 (Homo sapiens, UniProt P08684). In words: Inhibition of human CYP3A4. The data set is classed as ADME.
The target in another data set is Cytochrome P450 2C9 (Homo sapiens, UniProt P11712). In words: Inhibition of human CYP2C9. The data set is classed as ADME.
The nature of data set [4]: Plasma protein binding in human plasma. Format: ADME, cell-free. As to conditions: read-out: PPB (converted).
For data set [5], the target named is T2, Muscarinic acetylcholine receptor M4 (Homo sapiens, UniProt P08173).
T2 sequence (P08173 whole entry): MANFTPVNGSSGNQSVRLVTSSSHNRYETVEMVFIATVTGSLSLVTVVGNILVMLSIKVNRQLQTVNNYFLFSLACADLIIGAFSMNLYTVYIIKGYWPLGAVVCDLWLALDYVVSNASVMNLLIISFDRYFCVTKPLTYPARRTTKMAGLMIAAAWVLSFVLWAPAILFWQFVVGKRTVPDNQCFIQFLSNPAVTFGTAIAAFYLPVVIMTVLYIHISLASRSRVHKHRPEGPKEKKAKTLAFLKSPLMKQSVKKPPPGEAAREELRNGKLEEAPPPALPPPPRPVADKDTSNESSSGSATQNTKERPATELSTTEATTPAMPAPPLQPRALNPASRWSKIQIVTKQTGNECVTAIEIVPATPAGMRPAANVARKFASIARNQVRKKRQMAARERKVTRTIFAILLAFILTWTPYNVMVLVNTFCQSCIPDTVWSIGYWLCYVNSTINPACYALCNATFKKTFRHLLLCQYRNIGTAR
In words: Inhibition of human muscarinic M4 receptor by cell based functional assay.

Data set [6] in a line: Tmax in rat at 3 mg/kg, iv or 10 mg/kg, po. Format: ADME, organism-based. To be noted: in vivo.
The target in another data set is T3, Cytochrome P450 1A2 (Homo sapiens, UniProt P05177).
T3 sequence (P05177 whole entry): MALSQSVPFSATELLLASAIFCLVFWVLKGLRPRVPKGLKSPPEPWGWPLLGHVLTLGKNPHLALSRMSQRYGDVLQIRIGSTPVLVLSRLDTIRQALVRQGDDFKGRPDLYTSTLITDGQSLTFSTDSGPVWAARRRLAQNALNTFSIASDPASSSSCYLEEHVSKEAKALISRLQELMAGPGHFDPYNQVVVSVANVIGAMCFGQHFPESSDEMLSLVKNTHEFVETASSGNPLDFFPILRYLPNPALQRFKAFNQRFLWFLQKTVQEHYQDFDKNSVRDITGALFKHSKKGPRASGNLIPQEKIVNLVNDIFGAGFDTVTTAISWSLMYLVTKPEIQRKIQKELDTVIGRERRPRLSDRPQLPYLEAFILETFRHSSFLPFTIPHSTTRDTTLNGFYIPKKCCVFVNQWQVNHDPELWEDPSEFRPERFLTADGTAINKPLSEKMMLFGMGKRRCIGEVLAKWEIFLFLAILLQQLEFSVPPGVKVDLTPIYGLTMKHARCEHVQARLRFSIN
In words: Inhibition of human CYP1A2. The data set is classed as ADME.

The nature of data set [7]: AUC in rat at 3 mg/kg, iv or 10 mg/kg, po. Format: ADME, organism-based. As to conditions: plasma.
A short description of data set [8]: Half life in rat at 10 mg/kg, po. Format: ADME, organism-based. Also on record: dose 10 mg/kg, route oral. To be noted: in vivo.

Sequence of Cytochrome P450 2C9 (P11712 whole entry): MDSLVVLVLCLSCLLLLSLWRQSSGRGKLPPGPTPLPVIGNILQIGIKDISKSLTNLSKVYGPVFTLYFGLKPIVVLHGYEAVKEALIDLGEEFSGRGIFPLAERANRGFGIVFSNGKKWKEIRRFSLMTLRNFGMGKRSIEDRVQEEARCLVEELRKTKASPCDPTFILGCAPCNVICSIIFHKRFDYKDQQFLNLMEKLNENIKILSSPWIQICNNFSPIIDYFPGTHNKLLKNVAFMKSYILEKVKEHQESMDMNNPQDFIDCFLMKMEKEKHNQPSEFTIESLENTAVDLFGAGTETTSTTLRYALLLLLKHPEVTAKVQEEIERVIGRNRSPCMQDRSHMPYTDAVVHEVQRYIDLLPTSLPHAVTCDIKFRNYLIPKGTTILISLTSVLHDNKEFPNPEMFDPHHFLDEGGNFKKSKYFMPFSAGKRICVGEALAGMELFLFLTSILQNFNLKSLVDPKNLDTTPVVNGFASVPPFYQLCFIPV
Sequence of Cytochrome P450 3A4 (P08684 whole entry): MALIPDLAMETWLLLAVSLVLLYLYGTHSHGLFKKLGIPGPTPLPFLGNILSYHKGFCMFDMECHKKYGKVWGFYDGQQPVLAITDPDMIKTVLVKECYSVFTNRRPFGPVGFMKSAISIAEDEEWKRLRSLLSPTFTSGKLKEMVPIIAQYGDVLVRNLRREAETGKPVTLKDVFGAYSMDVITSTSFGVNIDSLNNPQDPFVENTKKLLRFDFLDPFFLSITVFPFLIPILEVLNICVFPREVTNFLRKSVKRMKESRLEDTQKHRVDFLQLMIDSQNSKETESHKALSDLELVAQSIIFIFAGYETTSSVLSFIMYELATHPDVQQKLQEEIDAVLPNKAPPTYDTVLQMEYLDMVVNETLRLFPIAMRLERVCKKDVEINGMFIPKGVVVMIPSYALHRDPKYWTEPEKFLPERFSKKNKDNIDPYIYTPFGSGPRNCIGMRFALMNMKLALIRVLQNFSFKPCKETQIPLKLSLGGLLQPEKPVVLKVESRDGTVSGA

For orientation: Cmax means the highest concentration seen after dosing. The EC50 is the midpoint of the concentration-response curve. Higher therefore signals lower potency in that assay. A word on the Tmax: it is the time from dosing to the highest level. One may read the AUC as concentration integrated over time. Low values mean low exposure, high ones high exposure. What is called half-life is the time needed for the level to fall by half in the phase considered. With `CNCCN1CCCc2cc(NC(=N)c3cccs3)ccc21`, in [1], the Cmax worked out at 880 nM. In data set [2], the Vd is 83.9 L/kg. Further, the EC50 in data set [3] and in data set [5] was over 40 µM in each case. Moreover, the “inhibition (INH)” value against Cytochrome P450 3A4, against Cytochrome P450 2C9 and on Cytochrome P450 1A2 was “Not Active” each time. For the same compound, the fraction unbound in data set [4] was 0.6. Further, in data set [6], the Tmax amounted to 2 h. Moreover, the AUC in data set [7] came out at 1160 ng·h/mL. This compound gave a half-life in data set [8] of 8.1 h.
